63 compounds from ChEMBL document CHEMBL5728971, “Small molecule inhibitors of lactate dehydrogenase and methods of use thereof” (2022) can be followed below.

Structures are written as SMILES. Some results are limits rather than exact numbers.

The assay is described as follows: Biochemical Assay: Test compounds were placed in a Greiner Bio-One (Monroe, N.C.) 1536-well black solid bottom assay plate. 200 millimolar (mM) Tris HCl, pH 7.4, 100 micromolar (μM) EDTA and 0.01% TWEEN-20™, final concentration, was used as the assay buffer. The LDHA reagent was 2 nanomolar (nM) Human LDHA (Meridian Life Science, Inc., Memphis, Tenn.), final concentration, in assay buffer.

On to `NS(=O)(=O)c1ccc(Cc2c(C3(C(F)(F)F)CC3)nn(-c3nc(C(=O)O)cs3)c2-c2cccc(-c3ccccc3)c2)cc1`, for which the IC50 entry was “in the range around 29000 nM”.
The figure for `NS(=O)(=O)c1ccc(Cc2c(-c3ccc(F)c(C#CC4CC4)c3)nn(-c3nc(C(=O)O)cs3)c2CC2CC2)cc1` is under 100 nM.
The figure for `NS(=O)(=O)c1ccc(Cc2c(-c3ccc(F)c(C#Cc4cccs4)c3)nn(-c3nc(C(=O)O)cs3)c2CC2CC2)cc1F` is under 100 nM; for `CCOC(=O)c1csc(-n2nc(-c3ccc(F)c(-c4cccc(OC)c4)c3)c(Cc3ccc(S(N)(=O)=O)c(F)c3)c2C2CC2)n1` it is over 57000 nM; for `NS(=O)(=O)c1ccc(Cc2c(-c3ccc(F)c(C#CC4(F)CCCC4)c3)nn(-c3nc(C(=O)O)cs3)c2CC2CC2)cc1F` it is under 100 nM.
As to `NS(=O)(=O)c1ccc(Cc2c(-c3ccc(F)c(C#CC4(O)CCOC4)c3)nn(-c3nc(C(=O)O)cs3)c2CC2CC2)cc1F` (stereo not drawn), the IC50 was under 100 nM.
The figure for `NS(=O)(=O)c1ccc(Cc2c(-c3cccc(C4CCCC4)c3)nn(-c3nc(C(=O)O)cs3)c2CC2CC2)cc1` is under 100 nM; for `NS(=O)(=O)c1ccc(Cc2c(-c3cccc(N4CCCC(C(F)(F)F)C4)c3)nn(-c3nc(C(=O)O)cs3)c2CC2CC2)cc1F` (stereo not drawn) it is under 100 nM.
The entry for `CCOC(=O)c1csc(-n2nc(-c3cccc(-c4ccccc4)c3)c(Cc3ccc(S(N)(=O)=O)cc3)c2CC2CC2)n1` is “in the range around 29000 nM”; for `NS(=O)(=O)c1ccc(Cc2c(-c3ccc(F)c(C4CCCCC4)c3)nn(-c3nc(C(=O)O)cs3)c2CC2CC2)cc1F` it is under 100 nM.
As to `NS(=O)(=O)c1ccc(Cc2c(-c3cccc(-c4cccc(F)c4)c3)nn(-c3nc(C(=O)O)cs3)c2CC2CC2)cc1`, the IC50 was under 100 nM.
Under `NS(=O)(=O)c1ccc(Cc2c(-c3ccc(F)c(-c4ccc(F)cc4)c3)nn(-c3nc(C(=O)O)cs3)c2CC2CC2)cc1` stands under 100 nM; under `Cc1ccc(-c2cccc(-c3c(Cc4ccc(S(N)(=O)=O)cc4F)c(C4CC4)nn3-c3nc(C(=O)O)cs3)c2)cc1`, “in the range around 29000 nM”.
Under `CCOC(=O)c1csc(-n2nc(-c3ccc(F)c(C#CC4CCCC4)c3)c(Cc3ccc(S(N)(=O)=O)cc3)c2CC2CC2)n1` stands “in the range around 29000 nM”; under `Cc1ccc(-c2cc(-c3nn(-c4nc(C(=O)O)cs4)c(CC4CC4)c3Cc3ccc(S(N)(=O)=O)c(F)c3)ccc2F)o1`, under 100 nM; under `O=C(O)c1csc(-n2nc(-c3cccc(-c4ccccc4F)c3)cc2O)n1`, over 57000 nM.
Under `O=C(O)c1csc(-n2nc(-c3ccc(F)c(F)c3)c(Cc3ccccc3)c2O)n1` stands over 57000 nM; under `NS(=O)(=O)c1ccc(Cc2c(-c3cccc(-c4cccc(F)c4)c3)nn(-c3nc(C(=O)O)cs3)c2C2CC2)cc1F`, under 100 nM; under `CCOC(=O)c1csc(-n2nc(-c3ccc(F)c(-c4cccc(F)c4)c3)c(Cc3ccc(S(N)(=O)=O)c(F)c3)c2C2CC2)n1`, “in the range around 29000 nM”.
Turning to `COc1cccc(-c2cccc(-c3nn(-c4nc(C(=O)O)cs4)c(C(F)(F)F)c3Cc3ccc(S(N)(=O)=O)cc3)c2)c1`, the IC50 is under 100 nM.
With `CCOC(=O)c1csc(-n2nc(-c3ccc(F)c(-c4ccc(C)cc4)c3)c(Cc3ccc(S(N)(=O)=O)c(F)c3)c2C2CC2)n1`, the IC50 entry is “in the range around 29000 nM”.
The figure for `CC#Cc1cc(-c2nn(-c3nc(C(=O)O)cs3)c(CC3CC3)c2Cc2ccc(S(N)(=O)=O)c(F)c2)ccc1F` is under 100 nM.
Under `NS(=O)(=O)c1ccc(Cc2c(CC3CC3)nn(-c3nc(C(=O)O)cs3)c2-c2ccc(F)c(-c3cccc(F)c3)c2)c(F)c1` stands “in the range around 29000 nM”.
Under `Cn1cc(-c2cc(-c3c(Cc4ccc(S(N)(=O)=O)c(F)c4)c(CC4CC4)nn3-c3nc(C(=O)O)cs3)ccc2F)cn1` stands over 57000 nM.
Take `Cc1ccc(-c2cc(-c3c(Cc4ccc(S(N)(=O)=O)cc4F)c(CC4CC4)nn3-c3nc(C(=O)O)cs3)ccc2F)cc1`: the IC50 result was “in the range around 29000 nM”.
Under `NS(=O)(=O)c1ccc(Cc2c(CC3CC3)nn(-c3nc(C(=O)O)cs3)c2-c2ccc(C(O)(C3CC3)C(F)(F)F)cc2)cc1F` (stereo not drawn) stands “in the range around 29000 nM”; under `NS(=O)(=O)c1ccc(Cc2c(-c3ccc(F)c(-c4cccc(F)c4)c3)nn(-c3nc(C(=O)O)cs3)c2C2CC2)cc1F`, under 100 nM.
The compound `Cc1ccc(-c2cccc(-c3nn(-c4nc(C(=O)O)cs4)c(C(F)(F)F)c3Cc3ccc(S(N)(=O)=O)cc3)c2)cc1` gave an IC50 of under 100 nM.
`NS(=O)(=O)c1ccc(Cc2c(-c3ccc(F)c(-c4cccc(F)c4)c3)nn(-c3nc(C(=O)O)cs3)c2CC2CC2)cc1`: the IC50 is under 100 nM.
The figure for `N#Cc1c(Cc2ccc(S(N)(=O)=O)cc2)c(-c2ccccc2)nn1-c1nc(C(=O)O)cs1` is under 100 nM.
Regarding `Cc1ccc(-c2cc(-c3nn(-c4nc(C(=O)O)cs4)c(CC4CC4)c3Cc3ccc(S(N)(=O)=O)c(F)c3)ccc2F)s1`, the concentration for half-maximal inhibition (IC50) was under 100 nM.
The figure for `NS(=O)(=O)c1ccc(Cc2c(-c3ccc(F)c(C#CC4CCCC4)c3)nn(-c3nc(C(=O)O)cs3)c2C2CC2)cc1F` is under 100 nM; for `CCOC(=O)c1csc(-n2nc(-c3ccc(F)c(-c4ccc(C)cc4)c3)c(Cc3ccc(S(N)(=O)=O)c(F)c3)c2CC2CC2)n1` it is “in the range around 29000 nM”; for `NS(=O)(=O)c1ccc(Cc2c(-c3ccc(F)c(C#CCC4CCCC4)c3)nn(-c3nc(C(=O)O)cs3)c2CC2CC2)cc1F` it is under 100 nM.
The figure for `O=C(O)c1csc(-n2nc(-c3cc(F)cc(F)c3)cc2O)n1` is over 57000 nM.
Under `Cc1cnc(-c2cc(-c3nn(-c4nc(C(=O)O)cs4)c(CC4CC4)c3Cc3ccc(S(N)(=O)=O)c(F)c3)ccc2F)s1` stands under 100 nM; under `COc1cccc(-c2cc(-c3nn(-c4nc(C(=O)O)cs4)c(CC4CC4)c3Cc3ccc(S(N)(=O)=O)c(F)c3)ccc2F)c1`, under 100 nM.
As to `NS(=O)(=O)c1ccc(Cc2c(C3CC3)nn(-c3nc(C(=O)O)cs3)c2-c2cccc(-c3ccc(F)cc3)c2)c(F)c1`, the IC50 result was “in the range around 29000 nM”.
Under `CCOC(=O)c1csc(-n2nc(-c3cccc(-c4ccccc4)c3)c(Cc3ccc(S(N)(=O)=O)cc3F)c2C2CC2)n1` stands over 57000 nM.
Under `CC#Cc1cc(-c2nn(-c3nc(C(=O)OCC)cs3)c(CC3CC3)c2Cc2ccc(S(N)(=O)=O)c(F)c2)ccc1F` stands “in the range around 29000 nM”; under `NS(=O)(=O)c1ccc(Cc2c(CC3CC3)nn(-c3nc(C(=O)O)cs3)c2-c2ccc(F)c(-c3cccc(F)c3)c2)cc1F`, “in the range around 29000 nM”; under `NS(=O)(=O)c1ccc(Cc2c(-c3ccc(F)c(C#CC4(O)CCCC4)c3)nn(-c3nc(C(=O)O)cs3)c2CC2CC2)cc1F`, under 100 nM.
Under `Cn1cc(-c2cc(-c3nn(-c4nc(C(=O)O)cs4)c(CC4CC4)c3Cc3ccc(S(N)(=O)=O)c(F)c3)ccc2F)cn1` stands under 100 nM; under `CCOC(=O)c1csc(-n2nc(-c3cccc(C#CC4CCCC4)c3)c(Cc3ccc(S(N)(=O)=O)c(F)c3)c2CC2CC2)n1`, over 57000 nM; under `Cc1ccc(-c2cc(-c3nn(-c4nc(C(=O)O)cs4)c(CC4CC4)c3Cc3ccc(S(N)(=O)=O)cc3F)ccc2F)cc1`, under 100 nM.
The compound `Cc1ccc(-c2cc(-c3nn(-c4nc(C(=O)O)cs4)c(CC4CC4)c3Cc3ccc(S(N)(=O)=O)c(Cl)c3)ccc2F)s1` gave an IC50 of under 100 nM.
The figure for `NS(=O)(=O)c1ccc(Cc2c(-c3ccc(F)c(C#CC4(O)COC4)c3)nn(-c3nc(C(=O)O)cs3)c2CC2CC2)cc1F` is under 100 nM; for `NC(=O)c1ccc(Cc2c(-c3cccc(-c4ccccc4)c3)nn(-c3nc(C(=O)O)cs3)c2O)cc1` it is over 57000 nM.
For `NS(=O)(=O)c1ccc(Cc2c(-c3cccc(N4CCCC(F)(F)C4)c3)nn(-c3nc(C(=O)O)cs3)c2CC2CC2)cc1F`, the IC50 was under 100 nM.
As to `NS(=O)(=O)c1ccc(Cc2c(-c3cccc(-c4ccccc4)c3)nn(-c3nc(C(=O)O)cs3)c2CC2CC2)c(F)c1`, the IC50 is under 100 nM.
The figure for `NS(=O)(=O)c1ccc(Cc2c(-c3ccc(F)c(C#CC4CCNCC4)c3)nn(-c3nc(C(=O)O)cs3)c2CC2CC2)cc1F` is under 100 nM; for `CCOC(=O)c1csc(-n2nc(-c3ccc(F)c(C#Cc4ccc(C)s4)c3)c(Cc3ccc(S(N)(=O)=O)c(F)c3)c2CC2CC2)n1` it is over 57000 nM.
The figure for `NS(=O)(=O)c1ccc(Cc2c(-c3ccc(F)c(-c4ccccc4F)c3)nn(-c3nc(C(=O)O)cs3)c2CC2CC2)cc1F` is under 100 nM; for `CCOC(=O)c1csc(-n2nc(-c3ccc(F)c(C#CC4CCCC4)c3)c(Cc3ccc(S(N)(=O)=O)c(F)c3)c2CC2CC2)n1` it is over 57000 nM; for `O=C(O)c1csc(-n2nc(-c3ccc(F)cc3F)cc2O)n1` it is over 57000 nM.
The compound `NS(=O)(=O)c1ccc(Cc2c(-c3ccc(F)c(/C=C/C4CCCC4)c3)nn(-c3nc(C(=O)O)cs3)c2CC2CC2)cc1F` showed an IC50 of under 100 nM.
Under `NS(=O)(=O)c1ccc(Cc2c(C3CC3)nn(-c3nc(C(=O)O)cs3)c2-c2cccc(-c3cccc(F)c3)c2)cc1F` stands “in the range around 29000 nM”.
The figure for `NS(=O)(=O)c1ccc(Cc2c(-c3cccc(-c4ccc(F)cc4)c3)nn(-c3nc(C(=O)O)cs3)c2C2CC2)cc1F` is under 100 nM; for `NS(=O)(=O)c1ccc(Cc2c(-c3ccc(F)c(-c4cccc(CN5CCOCC5)c4)c3)nn(-c3nc(C(=O)O)cs3)c2CC2CC2)cc1F` it is under 100 nM.
Under `Cc1ccc(-c2cc(-c3nn(-c4nc(C(=O)O)cs4)c(CC4CC4)c3Cc3ccc(S(N)(=O)=O)cc3F)ccc2F)s1` stands under 100 nM.
For `COc1cccc(-c2cccc(-c3c(Cc4ccc(S(N)(=O)=O)c(F)c4)c(C4CC4)nn3-c3nc(C(=O)O)cs3)c2)c1`, the 50% inhibitory concentration (IC50) entry was “in the range around 29000 nM”.
The entry for `NS(=O)(=O)c1ccc(Cc2c(Cc3ccccc3)nn(-c3nc(C(=O)O)cs3)c2-c2ccccc2)cc1` is “in the range around 29000 nM”; for `NS(=O)(=O)c1ccc(Cc2c(-c3ccc(F)c(-c4cccs4)c3)nn(-c3nc(C(=O)O)cs3)c2CC2CC2)cc1F` it is under 100 nM.

As a reminder, the IC50 is the point on the concentration scale where inhibition reaches its midpoint.
